{"source": "patent US9845460B2", "about": "“Treatment of pluripotent cells” (Janssen Biotech, Inc., priority 2008, dated 2017)", "molecules": {"B1": {"name": "AA only: control wells with base medium, FCS and activin A alone (protein, UniProt P08476 311-426, looked up)", "Inhibin beta A chain": "GLECDGKVNICCKKQFFVSFKDIGWNDWIIAPSGYHANYCEGECPSHIAGTSGSSLSFHSTVINHYRMRGHSPFANLKSCCVPTKLRPMSMLYYDDGQNIIKKDIQNMIVEECGCS"}}, "key": {"[1]": {"test_system": "cells expressing pluripotency markers", "assay": "Viability (MTS, OD 490 nm) of cells expressing pluripotency markers treated with GSK-3B inhibitors", "assay_type": "cell-based, human", "conditions": "for Raw data (duplicate): optical density at 490 nm (MTS), single wells", "description": "Derivation and maintenance of cells expressing pluripotency makers was conducted as has been described in Example 2. Cells were grown in DMEM:F12 supplemented with 2% FCS (Invitrogen), 100 ng/ml Activin A, 20 ng/ml Wnt-3a, and 50 ng/ml IGF (R&D Biosystems). Cells were seeded at a density of 10,000 cells/cm^2 on Falcon polystyrene flasks and grown in monolayer culture at 37° C., 5% CO2, low oxygen. After reaching 60-70% confluence, cells were passed by washing the monolayer with PBS and incubating with TrypLE (Invitrogen) for 3-5 minutes to allow detachment and single cell dispersal.\nScreening was conducted using test compounds from a proprietary library of small molecules selected for their ability to inhibit GSK-3B enzyme activity. Compounds from this library were made available as 1 mM stocks, in a 96-well plate format in 50 mM HEPES, 30% DMSO. For assay, cells expressing pluripotency markers were washed, counted, and plated in normal culture medium at a seeding density of 20,000 cells per well in 96-well clear-bottom, dark-well plates (Costar). This seeding density was previously determined to yield optimal monolayer formation in overnight culture. On the following day, culture medium was removed, cell monolayers were rinsed three times with PBS, and test compounds were added to the wells in 80 μl aliquots, each diluted into assay medium at a final assay concentration of 10 μM. On day 2 of the assay, medium was removed from each well and replaced with a fresh aliquot of test compounds diluted into assay medium. Assay medium on days 1 and 2 of culture consisted of DMEM:F12 supplemented with 0.5% FCS and 100 ng/ml Activin A. On days 3 and 4 of culture, medium was removed from each well and replaced with DMEM:F12 supplemented with 2% FCS and 100 ng/ml Activin A (no test compound). On day 4 of assay, 15 μl of MTS (Promega) was added to each well and plates were incubated at 37° C. for 1.5 to 4 hours prior to reading optical density at 490 nm on a SpectraMax (Molecular Devices) instrument. Statistical measures consisting of mean, standard deviation, and coefficient of variation were calculated for each duplicate set. Toxicity was calculated for each test well relative to a positive control (wells treated with Activin A and Wnt3a on days 1 and 2 of culture).\nA larger proportion of the compounds have minimal or no measurable toxicity in this cell-based assay.\nA small panel of select compounds was repeat tested over a narrow dose titration range, again using cells expressing pluripotency markers in a similar assay as described above."}, "[2]": {"test_system": "human embryonic stem cells (H9 line)", "assay": "High content screening assay: total cell number (proliferative response)", "assay_type": "cell-based", "description": "(§1) Maintenance of human embryonic stem cells (H9 line) was conducted as described in Example 1. Colonies of cells were maintained in an undifferentiated, pluripotent state with passage on average every four days. Passage was performed by exposing cell cultures to a solution of collagenase (1 mg/ml; Sigma-Aldrich) for 10 to 30 minutes at 37° C. followed by gentle scraping with a pipette tip to recover cell clusters. Clusters were allowed to sediment by gravity, followed by washing to remove residual collagenase. Cell clusters were split at a 1:3 ratio for routine maintenance culture or a 1:1 ratio for immediate assay. The human embryonic stem cell lines used were maintained at passage numbers less than passage 50 and routinely evaluated for normal karyotypic phenotype and absence of mycoplasma contamination.\n(§2) Cell clusters used in the assay were evenly resuspended in normal culture medium and plated onto MATRIGEL-coated 96-well Packard VIEWPLATES (PerkinElmer) in volumes of 100 μl/well. MEF conditioned medium supplemented with 8 ng/ml bFGF was used for initial plating and recovery. Daily feeding was conducted by aspirating spent culture medium from each well and replacing with an equal volume of fresh medium. Plates were maintained at 37° C., 5% CO2 in a humidified box throughout the duration of assay.\nScreening was conducted using test compounds from a proprietary library of small molecules selected for their ability to inhibit GSK-3B enzyme activity. Compounds from this library were made available as 1 mM stocks, in a 96-well plate format in 50 mM HEPES, 30% DMSO. Screening compounds were tested in triplicate or duplicate sets. Primary screening assays were initiated by aspirating culture medium from each well followed by three washes in PBS to remove residual growth factors and serum. Test volumes of 80 to 100 μl per well were added back containing DMEM:F12 base medium (Invitrogen) supplemented with 0.5% FCS (HyClone) and 100 ng/ml activin A (R&D Biosystems) plus […] test compound. Positive control wells contained the same base medium, substituting 10-20 ng/ml Wnt3a (R&D Biosystems) for the test compound. Negative control wells contained base medium with 0.5% FCS and activin A alone (AA only) or alternatively, 0.5% FCS without activin A or Wnt3a (no treatment). Wells were aspirated and fed again with identical solutions on day 2 of assay. On days 3 and 4, all assay wells were aspirated and converted to DMEM:F12 supplemented with 2% FCS and 100 ng/ml activin A (without test compound or Wnt3a); parallel negative control wells were maintained in DMEM:F12 base medium with 2% FCS and activin A (AA only) or alternatively, 2% FCS without activin A (no treatment). […]"}, "[3]": {"test_system": "Sox17", "assay": "High content screening assay: Sox17 protein expression (total intensity)", "assay_type": "cell-based, human", "description": "as §1\nas §2, with “assay. […]” for “assay.”"}, "[4]": {"test_system": "HNF-3beta", "assay": "High content screening assay: HNF-3beta protein expression (total intensity)", "assay_type": "cell-based, human", "description": "as §1\nas §2, with “assay. […]” for “assay.”"}, "[5]": {"test_system": "human embryonic stem cells (H9 or H1 lines)", "assay": "Plate reader assay (MTS, OD490): proliferation of human embryonic stem cells", "assay_type": "cell-based", "description": "Maintenance of human embryonic stem cells (H9 or H1 lines) was conducted as described in Example 1. Colonies of cells were maintained in an undifferentiated, pluripotent state with passage on average every four days. Passage was performed by exposing cell cultures to a solution of collagenase (1 mg/ml; Sigma-Aldrich) for 10 to 30 minutes at 37° C. followed by gentle scraping with a pipette tip to recover cell clusters. Clusters were allowed to sediment and washed to remove residual collagenase. Cell clusters were split at a ratio of 1:3 monolayer area for routine culture or a 1:1 ratio for immediate assay. The human embryonis stem cell lines used for these examples were maintained at passage numbers less than 50 and routinely evaluated for normal karyotypic phenotype as well as absence of mycoplasm contamination.\nas §2, with “in” for “in the”, “into” for “onto”, “bFGF)” for “bFGF”, “C.” for “C., 5% CO2”, “box, 5% CO2” for “box”\nPrimary screening assays were initiated by aspirating culture medium from each well followed by three washes in PBS to remove residual growth factors and serum. Test volumes of 80-100 μl per well were added back containing DMEM:F12 base medium (Invitrogen) supplemented with 0.5% FCS (HyClone) and 100 ng/ml activin A (R&D Biosystems) and 10 μM test compound. […]\nOn day 4 of assay, […] of MTS (Promega) was added to each well and plates were incubated at 37° C. for 1.5 to 4 hours. Densitometric readings at OD490 were determined using a Molecular Devices spectrophotometer plate reader. Average readings for replicate sets were calculated along with standard deviation and coefficient of variation. […]"}, "[6]": {"conditions": "total intensity normalized to Wnt3a/Activin A positive control"}}, "note": "Several values for one entry are separate records, joined by “and”; a condition that tells them apart may be missing. Identical values can stand only once."}
{"molecule": "OCCC#Cc1nc(-c2ccc(F)cc2)c(-c2ccncc2)n1CCCc1ccccc1", "note": "[RWJ67657]", "values": [{"measurement": "Average", "setting": "[1]; MTS viability readout, average of duplicate raw data", "value": 0.644}, {"measurement": "Raw data (duplicate), first value", "setting": "[1]; MTS viability readout, first of duplicate wells", "value": 0.629}, {"measurement": "Raw data (duplicate), second value", "setting": "[1]; MTS viability readout, second of duplicate wells", "value": 0.659}, {"measurement": "Average", "setting": "[1]; cmpd conc 2.5 uM, mean optical density at 490 nm (MTS) of duplicate", "value": 0.7971}, {"measurement": "Raw data (duplicate)", "setting": "[1]; cmpd conc 2.5 uM", "value": "0.8041 and 0.7900"}, {"measurement": "% Control", "setting": "[1]; cmpd conc 2.5 uM, viability relative to AA + Wnt3a positive control, MTS day 4", "value": 93.2, "unit": "%"}, {"measurement": "Average", "setting": "[1]; cmpd conc 5 uM, mean optical density at 490 nm (MTS) of duplicate", "value": 0.8183}, {"measurement": "Raw data (duplicate)", "setting": "[1]; cmpd conc 5 uM", "value": "0.8047 and 0.8319"}, {"measurement": "% Control", "setting": "[1]; cmpd conc 5 uM, viability relative to AA + Wnt3a positive control, MTS day 4", "value": 96.2, "unit": "%"}, {"measurement": "Average", "setting": "[1]; cmpd conc 10 uM, mean optical density at 490 nm (MTS) of duplicate", "value": 0.6052}, {"measurement": "Raw data (duplicate)", "setting": "[1]; cmpd conc 10 uM", "value": "0.6195 and 0.5908"}, {"measurement": "% Control", "setting": "[1]; cmpd conc 10 uM, viability relative to AA + Wnt3a positive control, MTS day 4", "value": 66.5, "unit": "%"}, {"measurement": "% Control", "setting": "[1]; viability as % of control", "value": 77.7, "unit": "%"}, {"measurement": "Proliferative Response Total cells (HNF-3b Expression set)", "setting": "[2]; total cell number in wells stained for HNF-3b", "value": 6058}, {"measurement": "Proliferative Response Total cells (SOX-17 Expression set)", "setting": "[2]; total cell number in wells stained for SOX-17", "value": 6376}, {"measurement": "Proliferative Response Fold over Wnt 3a/AA control (HNF-3b Expression set)", "setting": "[2]; total cells normalized to Wnt3a/Activin A positive control, wells stained for HNF-3b", "value": "0.3852 Fold over Wnt 3a/AA control"}, {"measurement": "Proliferative Response Fold over Wnt 3a/AA control (SOX-17 Expression set)", "setting": "[2]; total cells normalized to Wnt3a/Activin A positive control, wells stained for SOX-17", "value": "0.4162 Fold over Wnt 3a/AA control"}, {"measurement": "SOX-17 Expression Total Intensity", "setting": "[3]; total intensity", "value": 324450000}, {"measurement": "SOX-17 Expression Fold over Wnt 3a/AA control", "setting": "[3]; [6]", "value": "0.3336 Fold over Wnt 3a/AA control"}, {"measurement": "HNF-3b Expression Total Intensity", "setting": "[4]; total intensity", "value": 269025000}, {"measurement": "HNF-3b Expression Fold over Wnt 3a/AA control", "setting": "[4]; [6]", "value": "0.2428 Fold over Wnt 3a/AA control"}, {"measurement": "% Control Value", "setting": "[5]; 10 μM test compound, MTS OD490 on day 4, relative to Activin A/Wnt3a positive control", "value": 84.7, "unit": "%"}, {"measurement": "Average (of Raw Data)", "setting": "[5]; mean of replicate raw plate-reader readings (MTS, OD490), proliferation of human embryonic stem cells", "value": 1.2242}, {"measurement": "% Control", "setting": "[5]; relative to the AA/Wnt3a/DMSO positive control of the same plate (= 100.0)", "value": 84.7, "unit": "%"}]}
{"molecule": "B1", "values": [{"measurement": "Average", "setting": "[1]; control wells without test compound, mean optical density at 490 nm (MTS)", "value": "0.8889 and 0.7861"}, {"measurement": "Raw data (duplicate)", "setting": "[1]; control wells without test compound", "value": "0.8732 and 0.9046 and 0.7674 and 0.8047"}, {"measurement": "% Control", "setting": "[1]; control wells without test compound, relative to AA + Wnt3a", "value": "106.0% and 98.3%"}]}
